Active and inactive are the calls of the source.
How the values were obtained:
[1] = microbe, parasite or virus in culture; type: functional; details: Mycobacterium tuberculosis
Protein skinhead-1 = biological target: T1, Protein skinhead-1 (Caenorhabditis elegans, UniProt P34707); type: functional
T1 sequence (P34707 whole entry): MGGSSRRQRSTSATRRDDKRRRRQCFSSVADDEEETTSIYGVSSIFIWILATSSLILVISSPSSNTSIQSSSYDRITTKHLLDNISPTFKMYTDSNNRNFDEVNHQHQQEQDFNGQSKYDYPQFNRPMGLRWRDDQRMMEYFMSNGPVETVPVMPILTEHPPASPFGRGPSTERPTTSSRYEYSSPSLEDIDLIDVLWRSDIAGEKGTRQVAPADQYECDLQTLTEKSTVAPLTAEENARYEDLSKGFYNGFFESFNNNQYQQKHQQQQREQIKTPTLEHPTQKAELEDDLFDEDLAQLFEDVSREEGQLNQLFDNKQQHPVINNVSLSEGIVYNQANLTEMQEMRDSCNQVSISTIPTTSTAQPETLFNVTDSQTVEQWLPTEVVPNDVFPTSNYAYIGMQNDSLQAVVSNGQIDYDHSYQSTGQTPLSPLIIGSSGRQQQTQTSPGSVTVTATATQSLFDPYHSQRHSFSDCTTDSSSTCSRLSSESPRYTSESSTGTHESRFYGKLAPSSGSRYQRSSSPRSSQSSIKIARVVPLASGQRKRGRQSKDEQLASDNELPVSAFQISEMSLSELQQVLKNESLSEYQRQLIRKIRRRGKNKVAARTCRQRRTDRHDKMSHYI

[2] = fluconazole-exposed Candida albicans growth modulators – fluorescence, retest, confirmation (AID 2467); type: functional, cell-based
[3] = NIH-3T3 fibroblast cytotoxicity, dose response, cytotoxicity control, cell-based, fluorescence, Alamar Blue, secondary assay (AID 2327); type: functional;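 note: NIH-3T3 mouse fibroblasts cultured with fluconazole at 8 µg/mL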
[4] = viability of HCT116 lacking mutant beta-catenin – cell-based, human colon tumor, dose response (AID 1045); type: functional;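 note: HCT116 colon tumor cells with beta catenin knocked out; cells exposed to compound for 60 hours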
[5] = viability of PTEN-deleted HCT116 cells – cell-based, HCT116 PTEN knockout, dose response (AID 1047); type: functional;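 note: HCT116 colon tumor cells with PTEN knocked out; cells exposed to compound for 60 hours before readout; potency for loss of cell viability measured by luminescence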
[6] = biological target: T2, Corticotropin-releasing factor receptor 2/Corticotropin-releasing factor-binding protein (Homo sapiens, UniProt P24387+Q13324); test: activators of CRF receptor 2 with binding protein – uHTS hits, confirmation (AID 602473); type: functional; details: read-out: EC50_Mean
T2 sequence (Q13324 whole entry): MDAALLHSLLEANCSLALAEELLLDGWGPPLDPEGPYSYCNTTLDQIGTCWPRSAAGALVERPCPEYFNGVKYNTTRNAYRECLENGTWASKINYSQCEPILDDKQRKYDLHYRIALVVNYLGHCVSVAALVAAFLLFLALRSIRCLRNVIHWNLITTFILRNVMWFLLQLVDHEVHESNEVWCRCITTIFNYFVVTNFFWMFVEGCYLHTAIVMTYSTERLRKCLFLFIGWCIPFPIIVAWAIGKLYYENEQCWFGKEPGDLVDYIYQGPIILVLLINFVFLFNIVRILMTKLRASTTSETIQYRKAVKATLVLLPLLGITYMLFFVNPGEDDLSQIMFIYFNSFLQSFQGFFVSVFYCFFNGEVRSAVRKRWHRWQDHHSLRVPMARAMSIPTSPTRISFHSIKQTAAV
T2 sequence (P24387 whole entry): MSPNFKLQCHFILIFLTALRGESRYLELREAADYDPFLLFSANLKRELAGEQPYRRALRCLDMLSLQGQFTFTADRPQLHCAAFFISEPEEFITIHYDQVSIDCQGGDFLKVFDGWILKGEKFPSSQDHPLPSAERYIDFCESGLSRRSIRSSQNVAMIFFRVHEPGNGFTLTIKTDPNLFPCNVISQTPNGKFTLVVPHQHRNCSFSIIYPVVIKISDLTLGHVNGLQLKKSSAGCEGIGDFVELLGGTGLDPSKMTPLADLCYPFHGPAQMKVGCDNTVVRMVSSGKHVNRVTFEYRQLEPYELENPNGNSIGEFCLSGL

[7] = biological target: T3, Short transient receptor potential channel 4 (Mus musculus, UniProt Q9QUQ5); test: block of DAMGO-driven TRPC4 calcium entry – cell-based, HEK293 TRPC4/mu-opioid, Fluo-4 calcium, dose response (AID 434942); type: functional;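 note: potency of inhibitors blocking the TRPC4 calcium response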
T3 sequence (Q9QUQ5 whole entry): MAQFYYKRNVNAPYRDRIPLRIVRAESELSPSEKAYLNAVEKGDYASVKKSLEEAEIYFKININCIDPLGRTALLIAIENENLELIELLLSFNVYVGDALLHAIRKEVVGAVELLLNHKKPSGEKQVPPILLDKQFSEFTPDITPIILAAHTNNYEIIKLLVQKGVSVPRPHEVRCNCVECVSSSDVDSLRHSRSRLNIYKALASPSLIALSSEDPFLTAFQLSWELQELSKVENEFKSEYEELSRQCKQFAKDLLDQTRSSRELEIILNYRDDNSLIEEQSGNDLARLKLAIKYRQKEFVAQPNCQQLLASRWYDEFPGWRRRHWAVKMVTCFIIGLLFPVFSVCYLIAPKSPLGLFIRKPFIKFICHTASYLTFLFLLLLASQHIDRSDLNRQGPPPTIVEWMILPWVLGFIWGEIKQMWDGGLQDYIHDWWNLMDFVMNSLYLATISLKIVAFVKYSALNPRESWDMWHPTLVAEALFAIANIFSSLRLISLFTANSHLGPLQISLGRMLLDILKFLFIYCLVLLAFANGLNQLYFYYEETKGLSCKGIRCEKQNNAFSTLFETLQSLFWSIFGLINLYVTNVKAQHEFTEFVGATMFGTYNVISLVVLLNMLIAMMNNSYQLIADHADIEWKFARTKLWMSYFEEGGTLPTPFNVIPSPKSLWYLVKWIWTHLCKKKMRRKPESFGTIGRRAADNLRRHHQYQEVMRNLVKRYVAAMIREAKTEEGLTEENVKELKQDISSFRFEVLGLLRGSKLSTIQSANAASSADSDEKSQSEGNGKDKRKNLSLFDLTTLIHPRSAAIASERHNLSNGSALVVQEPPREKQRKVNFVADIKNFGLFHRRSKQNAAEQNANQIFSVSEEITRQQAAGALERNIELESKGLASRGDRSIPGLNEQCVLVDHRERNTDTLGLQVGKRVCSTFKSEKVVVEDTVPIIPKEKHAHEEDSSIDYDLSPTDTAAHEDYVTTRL

[8] = biological target: T4, Heat shock factor protein 1 (Mus musculus, UniProt P38532); test: enhancement of HSF1-driven luciferase signal – cell-based, NIH3T3, luminescence, dose retest, confirmation (AID 435004); type: functional;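 note: stress induced by proteasome inhibitor MG132 added 30 min after compound; luciferase reporter driven by HSF1 response element in NIH3T3 cells; actives raise luminescence as potentiators of the MG132 stress response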
T4 sequence (P38532 whole entry): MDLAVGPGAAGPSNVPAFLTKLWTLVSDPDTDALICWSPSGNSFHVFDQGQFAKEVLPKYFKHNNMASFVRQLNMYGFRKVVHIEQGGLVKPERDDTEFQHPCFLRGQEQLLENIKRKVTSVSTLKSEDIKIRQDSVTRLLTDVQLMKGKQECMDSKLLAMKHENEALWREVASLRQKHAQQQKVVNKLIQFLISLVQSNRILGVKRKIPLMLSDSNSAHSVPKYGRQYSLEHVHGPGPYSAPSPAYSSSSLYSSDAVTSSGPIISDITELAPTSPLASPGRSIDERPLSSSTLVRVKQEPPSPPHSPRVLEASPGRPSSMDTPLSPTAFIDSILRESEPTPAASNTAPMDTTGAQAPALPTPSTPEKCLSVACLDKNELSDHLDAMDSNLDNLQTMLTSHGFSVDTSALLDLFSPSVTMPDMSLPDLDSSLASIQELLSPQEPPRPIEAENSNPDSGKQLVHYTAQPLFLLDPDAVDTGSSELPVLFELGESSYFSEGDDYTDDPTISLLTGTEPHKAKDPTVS

[9] = biological target: FAD-linked sulfhydryl oxidase ALR (Homo sapiens, UniProt P55789); test: ALR-catalysed DTT oxidation blockers – biochemical, H2O2 detection, luminescence, cherry-pick, dose response (AID 493248)
FAD-linked sulfhydryl oxidase ALR, sequence (P55789 whole entry): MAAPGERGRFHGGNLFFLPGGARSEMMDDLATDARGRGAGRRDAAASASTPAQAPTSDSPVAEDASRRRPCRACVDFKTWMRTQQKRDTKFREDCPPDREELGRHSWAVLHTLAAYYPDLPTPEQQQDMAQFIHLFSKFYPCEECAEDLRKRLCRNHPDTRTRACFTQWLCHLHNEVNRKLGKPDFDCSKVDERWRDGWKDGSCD

[10] = biological target: T5, Polyadenylate-binding protein 1 (Homo sapiens, UniProt P11940); test: MLLE binding blockers, Cy5 peptide tracer – biochemical, fluorescence polarization, Cy5-PAM2 peptide, secondary, miRNA deadenylation inhibitor project, dose response (AID 602260); type: functional; details: read-out: IC50_Mean
T5 sequence (P11940 whole entry, the tested form may be a part): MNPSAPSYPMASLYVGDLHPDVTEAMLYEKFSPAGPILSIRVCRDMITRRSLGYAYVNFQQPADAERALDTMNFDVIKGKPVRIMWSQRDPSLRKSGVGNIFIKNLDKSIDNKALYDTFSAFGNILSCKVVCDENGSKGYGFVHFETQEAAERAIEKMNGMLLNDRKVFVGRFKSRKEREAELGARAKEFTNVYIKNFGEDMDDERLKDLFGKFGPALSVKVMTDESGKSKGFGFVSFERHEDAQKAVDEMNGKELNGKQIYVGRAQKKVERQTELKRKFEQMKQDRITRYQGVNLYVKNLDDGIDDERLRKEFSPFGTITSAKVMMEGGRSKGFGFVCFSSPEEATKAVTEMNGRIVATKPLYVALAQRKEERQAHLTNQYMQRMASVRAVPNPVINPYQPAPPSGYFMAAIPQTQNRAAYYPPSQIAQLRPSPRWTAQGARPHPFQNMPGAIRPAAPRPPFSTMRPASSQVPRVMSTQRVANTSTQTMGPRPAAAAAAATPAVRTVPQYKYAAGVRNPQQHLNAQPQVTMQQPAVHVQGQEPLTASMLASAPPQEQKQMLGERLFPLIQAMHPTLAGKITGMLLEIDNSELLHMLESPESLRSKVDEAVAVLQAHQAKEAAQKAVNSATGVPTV

[11] = biological target: T5, Polyadenylate-binding protein 1; test: MLLE domain peptide-binding blockers, IC50 – biochemical, fluorescence polarization, FITC-PAM2 peptide, dose response (AID 602259); type: functional; details: read-out: IC50_Mean
Nonstructural protein 1 = Nonstructural protein 1 (Influenza A virus, UniProt Q194T2); type: functional, Influenza A virus (A/California/07/2009(H1N1))
Nonstructural protein 1, sequence (Q194T2 whole entry): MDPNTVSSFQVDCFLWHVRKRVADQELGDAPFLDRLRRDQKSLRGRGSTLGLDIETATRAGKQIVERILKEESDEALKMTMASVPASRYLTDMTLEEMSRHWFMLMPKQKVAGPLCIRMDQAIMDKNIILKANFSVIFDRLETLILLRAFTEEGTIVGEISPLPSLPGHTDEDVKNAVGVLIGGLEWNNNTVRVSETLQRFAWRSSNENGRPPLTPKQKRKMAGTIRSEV

INS1 = test: INS-1E survival protection against cytokine death – cell-based, luminescence, retest, dose response (AID 449756); type: functional; details: Rattus norvegicus;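 note: cell death triggered by IL-1 beta plus TNF-alpha plus IFN-gamma mixture; protective hits raise ATP signal compared with cytokine alone wells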
Streptococcus = test: GAS UMAA2166 growth inhibition – luminescence, BacTiterGlo, counter-screen for streptokinase expression inhibitor project, dose response (AID 1915); type: functional, organism-based;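 note: potency for reduction of bacterial viability or growth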
[12] = tested on: Streptococcus sp. 'group A'; test: Streptococcus pyogenes SK(-)GAS viability under kanamycin – luminescence, BacTiterGlo, confirmation, counter-screen for streptokinase expression inhibitor project, dose response (AID 1900); type: functional, organism-based
Streptokinase A = biological target: T6, Streptokinase A (Streptococcus pyogenes serotype M1, UniProt P10520); test: viability-normalized secreted streptokinase activity reduction – plasminogen activation absorbance, OD405, dose response (AID 1914); type: functional, Streptococcus pyogenes M1 GAS;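 note: secreted streptokinase activity via plasminogen activation per viability signal from cell pellet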
T6 sequence (P10520 whole entry): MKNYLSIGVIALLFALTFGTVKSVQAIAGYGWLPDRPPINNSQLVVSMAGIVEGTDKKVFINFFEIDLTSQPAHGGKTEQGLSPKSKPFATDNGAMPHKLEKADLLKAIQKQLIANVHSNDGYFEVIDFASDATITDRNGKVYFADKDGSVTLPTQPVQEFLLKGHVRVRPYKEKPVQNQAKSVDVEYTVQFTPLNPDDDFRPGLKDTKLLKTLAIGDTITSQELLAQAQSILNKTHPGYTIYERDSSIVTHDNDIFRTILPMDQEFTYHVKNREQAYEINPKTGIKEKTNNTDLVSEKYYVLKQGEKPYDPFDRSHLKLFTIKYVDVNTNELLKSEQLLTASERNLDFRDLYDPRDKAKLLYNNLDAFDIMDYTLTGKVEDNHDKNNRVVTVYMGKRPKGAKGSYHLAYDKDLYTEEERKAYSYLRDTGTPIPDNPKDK

SMILES: Cc1cc(=O)oc2c(C)c(OCC(=O)N3CCN(C(=O)C4COc5ccccc5O4)CC3)ccc12 (configuration not stated)
- CC50 [1]: > 40 µM (active)

SMILES: Cc1cccc(NC(=O)c2ccc3c(c2)C(=O)N(c2ccccc2C)C3=O)n1
- IC50 (Protein skinhead-1): > 100 µM (inactive)

SMILES: ClCc1nc2ccccc2c2ccccc12
- CC50 [1]: 18.6 µM (active)

SMILES: COc1ccc(C(C(=O)NC2CCCCC2)N(Cc2cccs2)C(=O)Cc2c[nH]c3ccccc23)cc1 (configuration not stated)
- EC50 [2]: > 38 µM (not active)
- EC50 [3]: > 150 µM (inactive)
- IC50 (Protein skinhead-1): > 100 µM (inactive)

SMILES: O=C(C1CCCN(S(=O)(=O)c2ccc(F)cc2)C1)N(Cc1cccs1)C1CC1 (configuration not stated)
- EC50 [4]: 137 µM (active)
- EC50 [5]: 51.6 µM (active)

SMILES: CN(C)CCNC(=O)c1ccc(COc2ccc(Cl)cc2Cl)cc1
- EC50 [4]: 9 µM (active)
- EC50 [5]: 10.7 µM (active)

SMILES: C#CC[N+](C)(C)CCCCCCCC
- EC50 [4]: 16 µM (active)
- EC50 [6]: > 53 µM (inactive)
- EC50 [5]: 13.6 µM (active)

SMILES: N#Cc1cc2c(nc1SCC(=O)Nc1cc(Cl)ccc1Cl)C1CCN2CC1
- EC50 [4]: 3.02 µM (active)
- EC50 [5]: 6 µM (active)

SMILES: COc1ccccc1CNCC(c1ccccc1)c1ccccc1
- EC50 [7]: 4.73 µM (active)
- EC50 [8]: > 260 µM (inactive)

SMILES: Fc1ccc(-c2ccnc(S)n2)cc1
- AC50 [9]: 301 nM (active)
- IC50 [10]: > 66 µM (inactive)
- IC50 [11]: > 66 µM (inactive)

SMILES: C=C(C)Cn1c(SCC)nc2ccccc2c1=O
- EC50 [7]: 4.73 µM (active)

SMILES: COc1ccc(C2C(C(C)=O)=C(O)C(=O)N2c2ccc(Br)cc2)cc1 (configuration not stated)
- EC50 [7]: 0.668 µM (active)

SMILES: COc1cc(C2C(C#N)=C(C)N=C3C2=C(O)c2ccccc23)cc(OC)c1OC (configuration not stated)
- EC50 [4]: 21.5 µM (active)
- EC50 [5]: 16.1 µM (active)

SMILES: OCC1(Cc2ccccc2)CCCN(Cc2cnn(-c3ccccc3)c2)C1 (configuration not stated)
- EC50 [7]: 4.22 µM (active)

SMILES: Cc1nnc2sc(SCC(=O)Nc3cccc(Cl)c3)nn2c1=O
- IC50 (Nonstructural protein 1): 10.4 µM (active)

SMILES: Fc1ccc(-c2nnc3ccc(N4CCc5ccccc5C4)nn23)cc1
- EC50 [4]: 54 µM (active)
- EC50 [8]: > 260 µM (inactive)
- EC50 [5]: 40.1 µM (active)

SMILES: c1ccc(-c2ccc(-c3nc(-c4cccnc4)no3)cc2)cc1
- IC50 (Protein skinhead-1): > 100 µM (inactive)

SMILES: Cn1c(-c2ccccc2)cnc1NCc1ccc(F)cc1
- EC50 [7]: 1.88 µM (active)

SMILES: Nc1ccc(C=C2C=Cc3ccccc32)cc1
- IC50 (Protein skinhead-1): 21.3 µM (active)

SMILES: Brc1cccc(-c2nc3ccc(Br)cn3c2Cc2ccsc2)c1
- IC50 (Protein skinhead-1): > 100 µM (inactive)

SMILES: COc1cc(C(=O)N/N=C(\C)c2ccccn2)cc(OC)c1OC
- IC50 (Nonstructural protein 1): 16.9 µM (active)
- AC50 (INS1): 1.94 µM (active)

SMILES: O=[N+]([O-])c1cccc(/C=C/c2ccccn2)c1
- IC50 (Protein skinhead-1): 39.8 µM (active)

SMILES: Cc1cccc(/C=c2\s/c(=C\C(=O)C(C)(C)C)[nH]c2=O)c1
- CC50 [1]: 24.7 µM (active)
- EC50 (Streptococcus): 17.2 µM (active)
- EC50 [12]: 10 µM (active)
- EC50 (Streptokinase A): > 150 µM (not active)

SMILES: COc1ccc(NS(=O)(=O)c2ccc(N/N=C/c3ccc(N4CCOCC4)cc3)c([N+](=O)[O-])c2)cc1
- EC50 [4]: 5.68 µM (active)
- EC50 [5]: 6.25 µM (active)

From ChEMBL document CHEMBL1201862, “PubChem BioAssay data set” (2004)
